Assay results from PubChem BioAssay (NCI).
Values joined by “and” are separate entries in the source; they are usually repeats but may differ in a detail not shown here. Identical values can stand only once.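 Interpolation was linear, between the two tested concentrations surrounding the appropriate level; five concentrations were tested over 48 hours in 96-well plates. GI50 is the concentration that inhibits growth by half. TGI: concentration producing complete growth inhibition.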

What was measured:
Test in all cases: NCI anticancer screen, dose series, 48 h
DMS 273 small cell lung = system: DMS 273 small cell lung
OVCAR-3 ovarian = system: OVCAR-3 ovarian
MOLT-4 leukemia = system: MOLT-4 leukemia
HCT-15 colon = system: HCT-15 colon
OVCAR-4 ovarian = system: OVCAR-4 ovarian
M19-MEL melanoma = system: M19-MEL melanoma
SNB-78 CNS = system: SNB-78 CNS
CAKI-1 renal = system: CAKI-1 renal
NCI-H522 lung = system: NCI-H522 lung
NCI-H23 lung = system: NCI-H23 lung
MDA-MB-435 = system: MDA-MB-435

SMILES	TGI (DMS 273 small cell lung)	TGI (OVCAR-3 ovarian)	TGI (MOLT-4 leukemia)	TGI (HCT-15 colon)	TGI (OVCAR-4 ovarian)	TGI (M19-MEL melanoma)	TGI (SNB-78 CNS)	TGI (CAKI-1 renal)	TGI (NCI-H522 lung)	TGI (NCI-H23 lung)	GI50 (MDA-MB-435)	TGI (MDA-MB-435)	GI50 (OVCAR-3 ovarian)	GI50 (MOLT-4 leukemia)	GI50 (HCT-15 colon)	GI50 (NCI-H23 lung)	GI50 (OVCAR-4 ovarian)	GI50 (CAKI-1 renal)	GI50 (NCI-H522 lung)
C=CCC(OCCOCC)c1cc(OCCOCC)ccc1OC (stereo unspecified)	> 100 µM	> 100 µM	> 100 µM	> 100 µM	> 100 µM	> 100 µM	> 100 µM	> 100 µM	> 100 µM	–	–	–	–	–	–	–	–	–	–
COC(=O)C1=C(C(=O)OC)SC(=C(N=Nc2ccccc2)c2ccccc2)S1	> 100 µM	> 100 µM	> 100 µM	> 100 µM	> 100 µM	> 100 µM	> 100 µM	> 100 µM	> 100 µM	> 100 µM	–	–	–	–	–	–	–	–	–
O=C(OCCBr)c1ccc(Cl)c([N+](=O)[O-])c1	–	6.43 µM	55.3 µM	32.4 µM	23 µM	–	–	23.1 µM	3.04 µM	27.2 µM	15.5 µM	30.9 µM	2.69 µM	23.7 µM	16.3 µM	11.2 µM	10.2 µM	7.78 µM	0.957 µM
Clc1nc(Cl)c(-c2ccccc2)c(Cl)n1	–	7.71 µM	> 100 µM	5.01 µM	6.55 µM	–	–	3.33 µM	3.24 µM	12 µM	–	9.55 µM	–	–	–	–	–	–	–
COc1cc(C2C3=C(COC3=O)Nc3cc4c(cc32)CCC4)cc2c1OCO2 (stereo unspecified)	–	0.047 µM	15.6 µM	> 62.1 µM	19.8 µM	–	–	38.7 µM	0.0562 µM	3.04 µM	0.0237 µM	0.0604 µM	0.0231 µM	0.0496 µM	0.0728 µM	0.0427 µM	0.0717 µM	0.157 µM	0.02 µM
C=CC1C(OC2OC(CO)C(O)C(O)C2O)OC=C(C(=O)OC)C1CC=O (stereo unspecified)	–	> 100 µM	> 100 µM	> 100 µM	> 100 µM	> 100 µM	> 100 µM	–	–	> 100 µM	–	–	–	–	–	–	–	–	–
CC(=O)O[C@H]1CC[C@@]2(C)[C@@H](CC[C@@H]3[C@@H]2CC[C@]2(C)C=C(C=O)C[C@@H]32)C1	–	9.04 µM	7.33 µM	12.1 µM	13.8 µM	–	–	98.1 µM	45.6 µM	31.1 µM	5.01 µM	19.2 µM	3.1 µM	2.61 µM	2.26 µM	10.5 µM	3.48 µM	29.8 µM	21.1 µM
Cn1cc(-c2ccc(-c3cn(C)c4ccc(Cl)cc34)s2)c2cc(Cl)ccc21	–	> 100 µM	> 100 µM	> 100 µM	> 100 µM	–	–	> 100 µM	> 100 µM	> 100 µM	> 100 µM	> 100 µM	> 100 µM	> 100 µM	> 100 µM	> 100 µM	> 100 µM	> 100 µM	> 100 µM
Nc1ccc(-c2ccc(N)cc2I)c(I)c1	–	35.3 µM	43.6 µM	34.1 µM	> 100 µM	–	–	42.9 µM	36.7 µM	43.1 µM	3.72 µM	16.2 µM	16.6 µM	9.89 µM	13.7 µM	17.8 µM	17.5 µM	14.5 µM	16.4 µM
CC(C)N1C(NNC(=O)c2cnccn2)=NS(=O)(=O)c2ccccc21	–	> 100 µM	> 100 µM	> 100 µM	> 100 µM	–	–	> 100 µM	> 100 µM	> 100 µM	> 100 µM	> 100 µM	> 100 µM	> 100 µM	> 100 µM	> 100 µM	> 100 µM	> 100 µM	> 100 µM
FC(F)(F)c1ccc(-c2cnc(Cl)nc2NCc2cc(C(F)(F)F)cc(C(F)(F)F)c2)cc1	–	9.25 µM	> 100 µM	> 100 µM	> 100 µM	–	–	7.52 µM	9.86 µM	> 100 µM	2.96 µM	> 100 µM	2.79 µM	3.94 µM	3.48 µM	3.28 µM	2.94 µM	2.1 µM	2.69 µM
COc1cc(C2CC(c3ccc(N(C)C)cc3)=NN2C(C)=O)cc(OC)c1OC (stereo unspecified)	–	1.84 µM	> 100 µM	> 100 µM	> 100 µM	–	–	> 100 µM	> 27.1 µM	> 67 µM	0.231 µM	1.18 µM	0.352 µM	12.8 µM	1 µM	4.33 µM	10.9 µM	0.801 µM	1.95 µM
CCCOC(=O)CCn1c(SC)nc2[nH]cc(-c3ccccc3)c2c1=O	–	54.1 µM	15.1 µM	> 100 µM	95.8 µM	–	–	54 µM	32.5 µM	43 µM	17.5 µM	38.5 µM	19.9 µM	1.16 µM	37.7 µM	8.34 µM	29.2 µM	19.6 µM	11 µM
C=C1CCC2C3(C)COC(c4ccccc4Br)OC3CCC2(C)C1C/C=C1/C(=O)OCC1OC(C)=O (stereo unspecified)	–	2.47 µM	2.91 µM	2.25 µM	2.83 µM	–	–	6.46 µM	2.03 µM	3.17 µM	1.48 µM	3.5 µM	0.932 µM	0.821 µM	0.73 µM	1.59 µM	1.43 µM	2.4 µM	0.604 µM
c1ccc(P(CCP(CCP(c2ccccc2)c2ccccc2)c2ccccc2)CCP(c2ccccc2)c2ccccc2)cc1 (stereo unspecified)	–	> 10 µM	5.85 µM	> 10 µM	> 10 µM	–	–	> 10 µM	5.13 µM	> 10 µM	> 10 µM and 3.67 µM	> 10 µM	> 10 µM	–	–	–	–	> 10 µM and 3 µM	–
CCCCN(CCCC)c1ccc(C(=NC(C)CCCN(CC)CC)c2ccc(N(C)C)cc2)cc1 (stereo unspecified)	–	1.81 µM	2.18 µM	1.56 µM	3.34 µM	–	–	3.41 µM	1.56 µM	1.93 µM	0.783 µM	1.57 µM	0.846 µM	0.865 µM	0.767 µM	0.889 µM	1.09 µM	1.17 µM	0.706 µM
